Source: ChEMBL document CHEMBL1138732, “Evans Blue is an inhibitor of nuclear factor-kappa B (NF-kappaB)-DNA binding” (Bioorg Med Chem Lett, 2004)

Target: T1, Nuclear factor NF-kappa-B p105 subunit (Homo sapiens) (UniProt P19838)
T1 sequence (whole entry): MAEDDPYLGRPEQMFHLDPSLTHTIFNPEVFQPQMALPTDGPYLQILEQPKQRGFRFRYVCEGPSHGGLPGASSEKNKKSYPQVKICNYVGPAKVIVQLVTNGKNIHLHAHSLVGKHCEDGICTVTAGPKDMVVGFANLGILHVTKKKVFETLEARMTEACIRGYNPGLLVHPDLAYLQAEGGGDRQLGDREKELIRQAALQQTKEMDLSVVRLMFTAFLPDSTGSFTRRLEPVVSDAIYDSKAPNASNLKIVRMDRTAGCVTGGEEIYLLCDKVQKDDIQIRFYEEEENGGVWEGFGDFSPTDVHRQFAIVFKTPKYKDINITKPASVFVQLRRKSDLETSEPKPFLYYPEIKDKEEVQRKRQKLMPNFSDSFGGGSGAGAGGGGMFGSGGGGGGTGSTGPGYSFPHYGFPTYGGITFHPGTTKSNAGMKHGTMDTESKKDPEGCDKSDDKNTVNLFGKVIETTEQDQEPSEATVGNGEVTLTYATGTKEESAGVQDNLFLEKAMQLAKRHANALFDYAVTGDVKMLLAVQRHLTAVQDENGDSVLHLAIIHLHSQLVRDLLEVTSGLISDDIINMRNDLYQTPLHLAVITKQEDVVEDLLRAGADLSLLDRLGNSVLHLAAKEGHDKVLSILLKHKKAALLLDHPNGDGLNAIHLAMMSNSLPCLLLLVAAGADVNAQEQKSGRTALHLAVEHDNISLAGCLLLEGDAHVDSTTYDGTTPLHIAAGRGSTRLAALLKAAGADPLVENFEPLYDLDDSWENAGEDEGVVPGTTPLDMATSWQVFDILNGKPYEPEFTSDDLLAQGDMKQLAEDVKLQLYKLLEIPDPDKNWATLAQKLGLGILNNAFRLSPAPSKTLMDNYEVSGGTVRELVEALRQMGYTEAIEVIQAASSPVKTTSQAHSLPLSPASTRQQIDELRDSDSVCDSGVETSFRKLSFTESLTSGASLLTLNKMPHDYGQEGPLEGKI
Assay: inhibitory effect on the DNA binding of Nuclear factor kappa B; Active

Concentration: 100 µM
Structure (SMILES): Cc1cc(-c2ccc(/N=N/c3ccc4c(S(=O)(=O)O)cc(S(=O)(=O)O)c(N)c4c3O)c(C)c2)ccc1/N=N/c1ccc2c(S(=O)(=O)O)cc(S(=O)(=O)O)c(N)c2c1O
